From US20240300940A1, “Phenothiazinyl Compounds and Uses” (Prosetta Biosciences, Inc., priority 2023, published 2024)

What was measured:
[1] = tested on: E. faecalis ATCC29212; assay: Minimum bactericidal concentration assay; type: cell-based; conditions: Enterococcus faecalis
Description: (§1) The study was done based on CLSI document M26-A Wayne, PA: Clinical and laboratory standard institute: 1999.
(§2) After determination of a MIC in a broth system under standard conditions, measured aliquots of growth media may be sub-cultured quantitatively to solid media to assess bactericidal activity. To calculate the extent of killing at each antibiotic concentration, plates are incubated under appropriate conditions, colony counts are performed and results are compared to that of the growth control well. The accepted definition of the minimum bactericidal concentration (MBC) is the lowest concentration of test compound at which a 99.9% (3 log) or greater reduction in growth compared with the initial inoculum is observed. […] (Table 4).

[2] = tested on: E. faecium ATCC27270; assay: Minimum bactericidal concentration assay; type: cell-based; conditions: Enterococcus faecium
Description: as §1, §2

[3] = tested on: S. epidermidis ATCC14990; assay: Minimum bactericidal concentration assay; type: cell-based; conditions: Staphylococcus epidermidis
Description: as §1, §2

[4] = tested on: S. pneumoniae ATCC49619; assay: Minimum bactericidal concentration assay; type: cell-based; conditions: Streptococcus pneumoniae
Description: as §1, §2

[5] = tested on: S. pyogens ATCC49399; assay: Minimum bactericidal concentration assay; type: cell-based; conditions: Streptococcus
Description: as §1, §2

[6] = Mouse plasma pharmacokinetics
Description: For the mouse plasma pharmacokinetic analyses, the study was conducted in BALB/c mice with single dose of IV-3 mg/kg. Blood samples were collected at 10 time points/dose (0.25, 0.5, 1, 2, 4, 6, 8, 10, 12, and 24 h post dose). At each time point, blood samples were collected from 4 mice from the retro-orbital plexus. A terminal blood collection method was employed for collecting blood samples for each time point in all PK studies. […] The PK parameters were estimated by noncompartmental analysis.
Dose—mg/kg, AUC—ng. h/mL, Cmax-ng/mL, Tmax-h, Kel—1/h, Half-life-h, MRT-h, Clearance—mL/min/kg, Vd-L/kg, Bioavailability-%. IV—Intravenous, IP— Intraperitoneal, PO—Per oral.

[7] = tested on: Hennes-20 cells; assay: Hennes-20 oncology screen; type: cell-based; conditions: 72 h, alamar Blue
Summary of the method: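 Cells seeded at 500 and 15,000 per well in minimum essential medium, dosed with a compound titration after 24 h, then incubated 72 h at 37 °C. Alamar Blue added and incubated a further 72 h, read at 530/590. Lower signal only at low density indicates proliferation arrest; lower signal at both densities indicates toxicity.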

[8] = Organ exposure in mice; conditions: mice IV 3 mg/kg
[9] = tested on: S. aureus ATCC25923; assay: MIC assay, serial dilution; conditions: Staphylococcus aureus
[10] = tested on: S. epidermidis ATCC14990; assay: MIC assay, serial dilution; conditions: Staphylococcus epidermidis
[11] = tested on: S. pyogens ATCC49399; assay: MIC assay, serial dilution; conditions: Streptococcus
[12] = tested on: S. pneumoniae ATCC49619; assay: MIC assay, serial dilution; conditions: Streptococcus pneumoniae
[13] = tested on: E. faecalis ATCC29212; assay: MIC assay, serial dilution; conditions: Enterococcus faecalis
[14] = tested on: E. faecium ATCC27270; assay: MIC assay, serial dilution; conditions: Enterococcus faecium
[15] = tested on: Sensitive strain; assay: Cross resistance test (MIC); conditions: read-out: MIC, Sensitive strain
[16] = tested on: different species of gram-positive bacteria; assay: MIC assay, summary over gram-positive species; conditions: exception E. faecalis
[17] = BALB/c, mouse, in vivo, iv, 3 mg/kg

Q: For `CC1(C)C2CN(c3ccc4nc5ccc(N6CC7C(C6)C7(C)C)cc5[s+]c4c3)CC21` (centres unmarked) [Compound 1, 3,7-Di(6,6-dimethyl-3-azabicyclo[3.1.0]hexan-N-yl)phenothiazinium iodide], which MBC [1] is on record?
A: The MBC was 2 µg/mL.

Q: What about the MBC [2] of the same molecule?
A: The MBC was 0.5 µg/mL.

Q: What about the MBC [3] of the same molecule?
A: The MBC was 1 µg/mL.

Q: What about the MBC [4] of the same molecule?
A: Its MBC is 0.5 µg/mL.

Q: And the MBC [5]?
A: Its MBC is 0.5 µg/mL.

Q: What about the AUC(0-inf) [6, 17] of the same molecule?
A: The AUC(0-inf) was 2980 ng·h/mL.

Q: And the AUC(0-t) [6, 17]?
A: The AUC(0-t) was 2710 ng·h/mL.

Q: And the Cmax [6, 17]?
A: The Cmax was 5620 ng/mL.

Q: What about the MRT [6, 17] of the same molecule?
A: Its MRT is 7 h.

Q: What about the Tmax [6, 17] of the same molecule?
A: Its Tmax is 4.8 min.

Q: And the Vd [6, 17]?
A: The Vd was 7 L/kg.

Q: What about the clearance [6, 17] of the same molecule?
A: Its clearance is 17 mL/min/kg.

Q: And the half-life [6, 17]?
A: The half-life was 10 h.

Q: And the Kel ([6]; mice, IV 3 mg/kg single dose)?
A: The Kel was 0.07 h⁻¹.

Q: What about the EC50 [7] of the same molecule?
A: The EC50 was 500 nM.

Q: And the “Organ exposure, concentration” value ([8]; Brain, 0.5 hrs)?
A: The value was 81 ng.

Q: And the “Organ exposure, concentration” value ([8]; Brain, 2 hrs)?
A: The value was 56 ng.

Q: And the “Organ exposure, concentration” value ([8]; Brain, 24 hrs)?
A: Its value is 30 ng.

Q: What about the “Organ exposure, concentration” value ([8]; Heart, 0.5 hrs) of the same molecule?
A: Its value is 1335 ng.

Q: What about the “Organ exposure, concentration” value ([8]; Heart, 2 hrs) of the same molecule?
A: The value was 1951 ng.

Q: And the “Organ exposure, concentration” value ([8]; Heart, 24 hrs)?
A: Its value is 821 ng.

Q: And the “Organ exposure, concentration” value ([8]; Kidney, 0.5 hrs)?
A: The value was 1817 ng.

Q: What about the “Organ exposure, concentration” value ([8]; Kidney, 2 hrs) of the same molecule?
A: Its value is 2179 ng.

Q: And the “Organ exposure, concentration” value ([8]; Kidney, 24 hrs)?
A: Its value is 637 ng.

Q: And the “Organ exposure, concentration” value ([8]; Liver, 0.5 hrs)?
A: The value was 13897 ng.

Q: What about the “Organ exposure, concentration” value ([8]; Liver, 2 hrs) of the same molecule?
A: Its value is 11563 ng.

Q: And the “Organ exposure, concentration” value ([8]; Liver, 24 hrs)?
A: The value was 864 ng.

Q: And the “Organ exposure, concentration” value ([8]; Lungs, 0.5 hrs)?
A: Its value is 13003 ng.

Q: And the “Organ exposure, concentration” value ([8]; Lungs, 2 hrs)?
A: Its value is 4178 ng.

Q: And the “Organ exposure, concentration” value ([8]; Lungs, 24 hrs)?
A: Its value is 661 ng.

Q: And the “Organ exposure, concentration” value ([8]; Muscle, 0.5 hrs)?
A: The value was 154.5 ng.

Q: What about the “Organ exposure, concentration” value ([8]; Muscle, 2 hrs) of the same molecule?
A: Its value is 324.5 ng.

Q: And the “Organ exposure, concentration” value ([8]; Muscle, 24 hrs)?
A: The value was 168.33 ng.

Q: And the MIC [9]?
A: Its MIC is 0.25 µg/mL.

Q: What about the MIC [10] of the same molecule?
A: Its MIC is 0.5 µg/mL.

Q: And the MIC [11]?
A: The MIC was 0.25 µg/mL.

Q: What about the MIC [12] of the same molecule?
A: Its MIC is 0.25 µg/mL.

Q: And the MIC [13]?
A: The MIC was 2 µg/mL.

Q: And the MIC [14]?
A: The MIC was 0.5 µg/mL.

Q: What about the MIC [15] of the same molecule?
A: Its MIC is 0.25 µg/mL.

Q: What about the MIC range [16] of the same molecule?
A: The MIC range was 0.25 to 0.5 µg/mL.
